SMILES strings stand for the structures. Counter-ions that a name gives are not always drawn.

The test system of the first assay is human cardiac fibroblasts. The assay can be described thus: Cell-based inhibition assay of generation of procollagen I C-terminal propeptide (PICP), PICP ELISA. The note with it: Cardiac fibroblast; human cardiac fibroblasts, crowding media, 24 to 48 hr, PICP ELISA of media; read-out: pIC50, PICP cellular inhibition assay (converted). The protocol: Cell-Based Inhibition Assay of Generation of Procollagen I C-Terminal Propeptide (PICP) and Mature Collagen:
An adaptation of the collagen deposition assay described by Chen, C. Z. C., et al., British Journal of Pharmacology, 2009, 158, 1196-1209 was used to examine effect of compounds on procollagen I processing and collagen deposition. In the adapted assay, human cardiac fibroblasts were utilized. Processing of procollagen I was determined by a PICP ELISA assay and deposition of mature collagen was determined by immunostaining.
Human cardiac fibroblasts were cultured and maintained until passage 6 in FGM-3 media (Lonza, #CC-3132) in a 37° C. humidified incubator with 5% CO2. They were then seeded in 96-well black wall, clear bottom plates at 10,000 to 15,000 cells per well in eagle's minimum essential media (EMEM, ATCC #30-2003) containing 10% fetal bovine serum (FBS, Life Technologies #10082147), 1% Glutamax (Life Technologies #35050061) and 1% Penicillin and Streptomycin (Life Technologies #15070063). These cultures were placed in 37° C. incubator. The next day, media were removed by aspiration and cells were rinsed with phosphate buffered saline. Crowding media (also called ficoll media) was prepared by adding 112.5 mg/ml of ficoll70 and 75 mg/ml ficoll400 (GE healthcare #17-0310-10 and 17-0300-10, respectively), 100 μM ascorbic acid, 1% Glutamax and 1% Penicillin and Streptomycin to EMEM media. Test compounds (dissolved in DMSO) were diluted into crowding media and then added to the cells. Final concentration of DMSO in crowding media was less than 0.3%. Cells were treated for 24 to 48 hr in a 37° C. incubator. At the end of the treatment period, cell media were collected. The level of PICP in the media were determined by a PICP ELISA assay (Quidel #8003) following the manufacturer's protocol. Potencies of test compounds were calculated by fitting PICP levels, relative to untreated controls, to log (inhibitor) vs. response equation using Graphpad Prism software 5.0 and expressed as pIC50.
Consider `CCCCC[C@H](CN(O)C=O)C(=O)NCNC(=O)c1ccc(-c2cccc(OCC)c2)o1` [Example 14, (R)-5-(3-ethoxyphenyl)-N-((2-((N-hydroxyformamido)methyl)heptanamido)methyl) furan-2-carboxamide], for which the IC50 was below 3.98 µM.

Take `CCCCC[C@@H](C(=O)NCNC(=O)c1ccc(-c2ccc(C(=O)NCP(=O)(O)O)c(C)c2)o1)[C@@H](CC)N(O)C=O` [Example 144, ((4-(5-((((R)-2-((R)-1-(N-hydroxyformamido)propyl)heptanamido)methyl)carbamoyl)furan-2-yl)-2-methylbenzamido)methyl)phosphonic acid]: the IC50 was below 3.98 µM.

For the compound `CCCCC[C@@H](C(=O)NCNC(=O)c1ccc(-c2ccc(C(=O)NCP(=O)(O)O)c(O)c2)o1)[C@@H](CC)N(O)C=O` [Example 142, ((2-hydroxy-4-(5-((((R)-2-((R)-1-(N-hydroxyformamido)propyl)heptanamido)methyl)carbamoyl)furan-2-yl)benzamido)methyl)phosphonic acid], the IC50 is below 3.98 µM.

With `CCCCC[C@@H](C(=O)NCNC(=O)c1ccc(-c2ccc(C(=O)N[C@@H](CCC(=O)O)C(=O)O)c(OCC)c2)o1)[C@@H](CC)N(O)C=O` [Example 135, (S)-2-(2-ethoxy-4-(5-((((R)-2-((R)-1-(N-hydroxyformamido)propyl)heptanamido)methyl)carbamoyl)furan-2-yl)benzamido) pentanedioic acid], the IC50 was below 3.98 µM.

With `CCCCC[C@@H](C(=O)NCNC(=O)c1ccc(-c2cc(CNCP(=O)(O)O)cc(OCC)c2)o1)[C@@H](CC)N(O)C=O` [Example 137, (((3-ethoxy-5-(5-((((R)-2-((R)-1-(N-hydroxyformamido)propyl)heptanamido)methyl)carbamoyl)furan-2-yl)benzyl)amino)methyl)phosphonic acid, trifluoroacetic acid salt], the IC50 was below 3.98 µM.

For `CCCCC[C@H](CN(O)C=O)C(=O)NCNC(=O)c1ccc(-c2cccc([N+](=O)[O-])c2)o1` [Example 105, (R)—N-((2-((N-hydroxyformamido)methyl)heptanamido)methyl)-5-(3-nitrophenyl)furan-2-carboxamide], the IC50 was below 3.98 µM.

Regarding `CCCCC[C@@H](C(=O)NCNC(=O)c1ccc(-c2cc(OCC)cc(C(=O)N(CC(=O)O)CC(=O)O)c2)o1)[C@@H](CC)N(O)C=O` [Example 87, 2,2′-((3-ethoxy-5-(5-((((R)-2-((R)-1-(N-hydroxy-formamido)propyl)heptanamido)methyl)carbamoyl)furan-2-yl)benzoyl)azanediyl) diacetic acid], the IC50 was below 3.98 µM.

For `CCCCC[C@H](CN(O)C=O)C(=O)NCNC(=O)c1ccc(-c2ccc(F)c(C(=O)O)c2F)o1` [Example 78], the IC50 was below 3.98 µM.

Take `CCOc1cc(C(=O)O)c(O)c(-c2ccc(C(=O)NCNC(=O)[C@H](CCc3ccccc3)[C@@H](CC)N(O)C=O)o2)c1` [Example 115, 5-ethoxy-2-hydroxy-3-(5-((((2R,3R)-3-(N-hydroxyformamido)-2-phenethylpentanamido)methyl)carbamoyl)furan-2-yl)benzoic acid]: the IC50 was below 3.98 µM.

Consider `CCCCC[C@@H](C(=O)NCNC(=O)c1ccc(-c2cccc(C(C)(C)C(=O)O)c2)o1)[C@@H](CC)N(O)C=O` [Example 67, 2-(3-(5-((((R)-2-((R)-1-(N-hydroxyformamido)propyl)heptanamido)methyl)carbamoyl)furan-2-yl)phenyl)-2-methylpropanoic acid], for which the IC50 is below 3.98 µM.

As to `CCCCC[C@H](CN(O)C=O)C(=O)NCNC(=O)c1ccc(-c2cc(OCC)cc(C(=O)NCCN)c2)o1` [Example 34, (R)-5-(3-((2-aminoethyl)carbamoyl)-5-ethoxyphenyl)-N-((2-((N-hydroxyformamido)methyl)heptanamido)methyl) furan-2-carboxamide], the IC50 is below 3.98 µM.

As for `CCCCC[C@H](CN(O)C=O)C(=O)NCNC(=O)c1ccc(-c2ccc(N)c(C(=O)O)c2)o1` [Example 64, (R)-2-amino-5-(5-(((2-((N-hydroxyformamido)methyl)heptanamido)methyl)carbamoyl)furan-2-yl)benzoic acid], the IC50 is below 3.98 µM.

Turning to `CCCCC[C@@H](C(=O)NCNC(=O)c1ccc(-c2ccc(C(=O)O)c(O)c2)o1)[C@@H](CC)N(O)C=O` [Example 146, 2-hydroxy-4-(5-((((R)-2-((R)-1-(N-hydroxyformamido)propyl)heptanamido)methyl)carbamoyl)furan-2-yl)benzoic acid], the IC50 is below 3.98 µM.

With `CCCCC[C@@H](C(=O)NCNC(=O)c1ccc(-c2ccc(CC(=O)O)c(OCC)c2)o1)[C@@H](CC)N(O)C=O` [Example 41, 2-(2-ethoxy-4-(5-((((R)-2-((R)-1-(N-hydroxyformamido)propyl)heptanamido)methyl)carbamoyl)furan-2-yl)phenyl)acetic acid], the IC50 was below 3.98 µM.

For the compound `CCCCC[C@H](CN(O)C=O)C(=O)NCNC(=O)c1ccc(-c2cc(OC)cc(OC)c2)o1` [Example 52, (R)-5-(3,5-dimethoxyphenyl)-N-((2-((N-hydroxyformamido)methyl)heptanamido)methyl)furan-2-carboxamide], the IC50 is below 3.98 µM.

As to `CCCCC[C@H](CN(O)C=O)C(=O)NCNC(=O)c1ccc(-c2cccc(P(C)(=O)O)c2)o1` [Example 94, (3-(5-((((R)-2-((N-hydroxyformamido)methyl)heptanamido)methyl)carbamoyl)furan-2-yl)phenyl)(methyl)phosphinic acid], the IC50 was below 3.98 µM.

As to `CCCCC[C@H](CN(O)C=O)C(=O)NCNC(=O)c1ccc(-c2ccc3cnn(C)c3c2)o1` [Example 106, (R)—N-((2-((N-hydroxyformamido)methyl)heptanamido)methyl)-5-(1-methyl-1H-indazol-6-yl)furan-2-carboxamide], the IC50 was below 3.98 µM.

`CCOc1cc(-c2ccc(C(=O)NCNC(=O)[C@H](CCc3ccc4ccccc4c3)[C@@H](CC)N(O)C=O)o2)ccc1C(=O)N[C@@H](CC(=O)O)C(=O)O` [Example 117, (S)-2-(2-ethoxy-4-(5-((((2R,3R)-3-(N-hydroxyformamido)-2-(2-(naphthalen-2-yl)ethyl)pentana-mido)methyl)carbamoyl)furan-2-yl)benzamido) succinic acid]: the IC50 was below 3.98 µM.

For the compound `CCCCC[C@H](CN(O)C=O)C(=O)NCNC(=O)c1ccc(-c2ccc(O)c(C(=O)O)c2)o1` [Example 62, (R)-2-hydroxy-5-(5-(((2-((N-hydroxyformamido)methyl)heptanamido)methyl)carbamoyl)furan-2-yl)benzoic acid], the IC50 was below 3.98 µM.

As for `CCCCC[C@H](CN(O)C=O)C(=O)NCNC(=O)c1ccc(-c2cccc(C(=O)O)c2OC)o1` [Example 55, (R)-3-(5-(((2-((N-hydroxyformamido)methyl)heptanamido)methyl)carbamoyl)furan-2-yl)-2-methoxybenzoic acid], the IC50 is below 3.98 µM.

Regarding `CCCCC[C@@H](C(=O)NCNC(=O)c1ccc(-c2cc(OCC(=O)O)cc(C(=O)N[C@@H](CC(=O)O)C(=O)O)c2)o1)[C@@H](CC)N(O)C=O` [Example 125, (S)-2-(3-(carboxymethoxy)-5-(5-((((R)-2-((R)-1-(N-hydroxyformamido)propyl)heptanamido)methyl)carbamoyl)furan-2-yl)benzamido) succinic acid], the IC50 was below 3.98 µM.

On to `CCCCC[C@@H](C(=O)NCNC(=O)c1ccc(-c2cc(OCC)cc(C(=O)NC(CO)(CO)CO)c2)o1)[C@@H](CC)N(O)C=O` [Example 88, 5-(3-((1,3-dihydroxy-2-(hydroxymethyl)propan-2-yl)carbamoyl)-5-ethoxyphenyl)-N—(((R)-2-((R)-1-(N-hydroxyformamido)propyl)heptanamido)methyl)furan-2-carboxamide], for which the IC50 was below 3.98 µM.

Turning to `CCCCC[C@@H](C(=O)NCNC(=O)c1ccc(-c2cc(OCC)cc(C(=O)NCC(=O)O)c2)o1)[C@@H](CC)N(O)C=O` [Example 85, 2-(3-ethoxy-5-(5-((((R)-2-((R)-1-(N-hydroxy-formamido)propyl)heptanamido)methyl)carbamoyl)furan-2-yl)benzamido) acetic acid], the IC50 is below 3.98 µM.

Turning to `CCCCC[C@@H](C(=O)NCNC(=O)c1ccc(-c2cc(OCC)cc(C(=O)N[C@@H](CCC(=O)OC)C(=O)OC)c2)o1)[C@@H](CC)N(O)C=O` [Example 48, (S)-dimethyl 2-(3-ethoxy-5-(5-((((R)-2-((R)-1-(N-hydroxyformamido)propyl)heptanamido)methyl)carbamoyl)furan-2-yl)benzamido) pentanedioate], the IC50 is below 3.98 µM.

The assay is the same for the next values; noted with them: Homo sapiens, Cardiac fibroblast, read-out: pIC50, PICP cellular inhibition assay (converted).
For `CCCCC[C@@H](C(=O)NCNC(=O)c1ccc(-c2ccc(C(=O)O)cc2)o1)[C@@H](CC)N(O)C=O` [Example 71, 4-(5-((((R)-2-((R)-1-(N-hydroxyformamido)propyl)heptanamido)methyl)carbamoyl)furan-2-yl)benzoic acid], the IC50 is below 3.98 µM.

The values are drawn from patent US10450288B2, “Hydroxy formamide derivatives and their use” (GLAXOSMITHKLINE INTELLECTUAL PROPERTY (NO.2) LIMITED, priority 2014, dated 2019).
